Test results from publication PMC6199744, “Development of Chemical Proteomics for the Folateome and Analysis of the Kinetoplastid Folateome” (ACS Infectious Diseases, 2018).
Where two headings read alike, the source gives them in different places.

Key:
Assay type in all cases: binding
[1] = target: T1, HeLa cell extract proteins (Homo sapiens, UniProt P11177)
T1 construct: endogenous in cells; host or cells: HeLa cell extract
T1 sequence (P11177 31-359): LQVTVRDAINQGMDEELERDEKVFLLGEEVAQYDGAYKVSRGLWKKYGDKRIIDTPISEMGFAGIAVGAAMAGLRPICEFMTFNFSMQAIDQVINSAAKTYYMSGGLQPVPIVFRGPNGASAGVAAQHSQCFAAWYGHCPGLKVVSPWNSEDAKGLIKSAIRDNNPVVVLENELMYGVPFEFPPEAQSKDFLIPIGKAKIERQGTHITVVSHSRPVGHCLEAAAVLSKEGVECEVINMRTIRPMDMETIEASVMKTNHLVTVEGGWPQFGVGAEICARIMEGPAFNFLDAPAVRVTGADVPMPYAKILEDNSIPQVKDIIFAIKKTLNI

[2] = target: T2, HeLa cell extract proteins (Homo sapiens, UniProt Q9Y678)
T2 construct: endogenous in cells; host or cells: HeLa cell extract
T2 sequence (Q9Y678 1-874): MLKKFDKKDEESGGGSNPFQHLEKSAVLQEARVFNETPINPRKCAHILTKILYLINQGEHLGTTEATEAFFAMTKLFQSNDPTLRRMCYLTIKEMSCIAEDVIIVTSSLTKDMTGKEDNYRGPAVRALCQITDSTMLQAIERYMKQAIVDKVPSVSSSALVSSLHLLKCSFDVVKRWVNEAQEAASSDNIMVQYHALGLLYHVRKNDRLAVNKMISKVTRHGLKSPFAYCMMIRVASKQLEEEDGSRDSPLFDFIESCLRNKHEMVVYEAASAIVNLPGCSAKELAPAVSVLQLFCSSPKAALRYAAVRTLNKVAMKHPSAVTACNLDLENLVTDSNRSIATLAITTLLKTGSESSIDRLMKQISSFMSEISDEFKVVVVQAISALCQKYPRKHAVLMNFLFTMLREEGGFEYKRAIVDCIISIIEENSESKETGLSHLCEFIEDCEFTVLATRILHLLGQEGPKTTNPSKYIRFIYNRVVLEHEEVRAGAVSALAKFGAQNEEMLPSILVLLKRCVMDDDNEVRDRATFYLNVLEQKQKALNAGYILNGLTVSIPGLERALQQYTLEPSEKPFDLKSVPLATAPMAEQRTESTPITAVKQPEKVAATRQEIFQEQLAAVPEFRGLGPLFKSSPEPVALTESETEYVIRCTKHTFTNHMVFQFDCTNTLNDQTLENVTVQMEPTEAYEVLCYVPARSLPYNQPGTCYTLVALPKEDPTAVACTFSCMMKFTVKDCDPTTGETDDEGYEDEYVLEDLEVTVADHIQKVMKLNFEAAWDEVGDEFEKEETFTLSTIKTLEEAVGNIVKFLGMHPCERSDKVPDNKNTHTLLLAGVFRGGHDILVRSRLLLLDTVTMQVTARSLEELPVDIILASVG

[3] = target: T3, HeLa cell extract proteins (Homo sapiens, UniProt P04179)
T3 construct: endogenous in cells; host or cells: HeLa cell extract
T3 sequence (P04179 25-222): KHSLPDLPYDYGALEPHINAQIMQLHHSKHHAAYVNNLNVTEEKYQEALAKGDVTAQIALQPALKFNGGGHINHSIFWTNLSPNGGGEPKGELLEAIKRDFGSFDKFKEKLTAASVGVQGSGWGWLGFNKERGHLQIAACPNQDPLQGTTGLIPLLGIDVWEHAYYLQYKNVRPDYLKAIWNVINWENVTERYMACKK

[4] = target: T4, HeLa cell extract proteins (Homo sapiens, UniProt O95373)
T4 construct: endogenous in cells; host or cells: HeLa cell extract
T4 sequence (O95373 whole entry): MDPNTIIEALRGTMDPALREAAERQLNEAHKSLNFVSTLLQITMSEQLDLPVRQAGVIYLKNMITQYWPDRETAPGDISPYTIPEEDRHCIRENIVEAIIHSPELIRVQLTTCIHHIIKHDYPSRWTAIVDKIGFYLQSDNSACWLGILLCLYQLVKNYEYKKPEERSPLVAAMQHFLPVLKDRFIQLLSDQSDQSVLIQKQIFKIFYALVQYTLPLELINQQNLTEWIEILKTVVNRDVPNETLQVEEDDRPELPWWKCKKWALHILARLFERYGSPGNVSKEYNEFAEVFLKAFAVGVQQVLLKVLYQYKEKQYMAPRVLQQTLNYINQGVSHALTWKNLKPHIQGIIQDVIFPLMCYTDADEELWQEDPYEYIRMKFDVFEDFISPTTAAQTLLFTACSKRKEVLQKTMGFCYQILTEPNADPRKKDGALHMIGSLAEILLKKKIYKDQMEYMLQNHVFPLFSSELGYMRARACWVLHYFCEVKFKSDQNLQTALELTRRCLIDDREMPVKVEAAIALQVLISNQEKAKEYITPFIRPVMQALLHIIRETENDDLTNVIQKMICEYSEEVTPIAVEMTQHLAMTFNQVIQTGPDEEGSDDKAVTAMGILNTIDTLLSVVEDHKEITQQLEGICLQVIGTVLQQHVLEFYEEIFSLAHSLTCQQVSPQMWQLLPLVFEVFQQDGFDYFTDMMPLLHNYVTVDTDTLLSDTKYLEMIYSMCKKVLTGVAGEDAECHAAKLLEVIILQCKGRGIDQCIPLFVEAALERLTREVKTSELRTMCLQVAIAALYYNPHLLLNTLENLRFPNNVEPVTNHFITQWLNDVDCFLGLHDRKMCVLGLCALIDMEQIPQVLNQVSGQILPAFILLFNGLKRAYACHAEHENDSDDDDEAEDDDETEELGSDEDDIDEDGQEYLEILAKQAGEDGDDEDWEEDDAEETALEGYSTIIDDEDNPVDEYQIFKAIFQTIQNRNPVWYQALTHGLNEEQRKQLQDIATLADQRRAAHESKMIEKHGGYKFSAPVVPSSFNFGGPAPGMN

[5] = target: T5, HeLa cell extract proteins (Homo sapiens, UniProt Q15029)
T5 construct: endogenous in cells; host or cells: HeLa cell extract
T5 sequence (Q15029 1-972): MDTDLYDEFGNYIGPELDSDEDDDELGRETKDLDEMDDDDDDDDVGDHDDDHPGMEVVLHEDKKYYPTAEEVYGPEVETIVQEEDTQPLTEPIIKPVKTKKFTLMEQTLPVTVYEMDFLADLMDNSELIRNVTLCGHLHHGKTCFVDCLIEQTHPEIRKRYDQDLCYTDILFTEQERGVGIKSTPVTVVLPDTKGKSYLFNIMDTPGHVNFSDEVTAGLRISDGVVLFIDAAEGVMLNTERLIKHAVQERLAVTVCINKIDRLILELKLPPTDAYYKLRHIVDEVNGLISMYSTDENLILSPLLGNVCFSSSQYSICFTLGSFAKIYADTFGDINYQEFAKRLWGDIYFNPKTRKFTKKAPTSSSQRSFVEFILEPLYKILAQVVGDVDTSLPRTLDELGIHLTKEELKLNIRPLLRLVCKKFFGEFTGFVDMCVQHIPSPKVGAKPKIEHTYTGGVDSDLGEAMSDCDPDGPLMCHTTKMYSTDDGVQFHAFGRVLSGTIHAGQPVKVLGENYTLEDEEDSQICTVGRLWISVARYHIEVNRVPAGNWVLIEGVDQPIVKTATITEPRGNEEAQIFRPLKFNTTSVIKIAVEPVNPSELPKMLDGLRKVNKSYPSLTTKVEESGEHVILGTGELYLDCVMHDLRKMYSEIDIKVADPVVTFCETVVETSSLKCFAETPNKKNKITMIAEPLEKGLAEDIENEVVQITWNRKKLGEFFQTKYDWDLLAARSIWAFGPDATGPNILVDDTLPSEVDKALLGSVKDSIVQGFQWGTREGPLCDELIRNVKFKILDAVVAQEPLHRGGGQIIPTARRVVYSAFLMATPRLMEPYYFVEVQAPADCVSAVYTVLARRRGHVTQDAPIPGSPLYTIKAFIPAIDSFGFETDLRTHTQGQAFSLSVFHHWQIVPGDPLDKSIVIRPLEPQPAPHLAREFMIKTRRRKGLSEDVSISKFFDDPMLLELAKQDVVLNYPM

[6] = target: T6, HeLa cell extract proteins (Homo sapiens, UniProt P07737)
T6 construct: endogenous in cells; host or cells: HeLa cell extract
T6 sequence (P07737 whole entry): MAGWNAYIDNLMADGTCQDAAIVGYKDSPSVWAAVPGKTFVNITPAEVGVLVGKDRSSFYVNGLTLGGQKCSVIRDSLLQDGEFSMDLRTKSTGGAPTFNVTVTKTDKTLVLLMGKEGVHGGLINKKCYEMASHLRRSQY

[7] = target: T7, HeLa cell extract proteins (Homo sapiens, UniProt Q9NQR4)
T7 construct: endogenous in cells; host or cells: HeLa cell extract
T7 sequence (Q9NQR4 1-276): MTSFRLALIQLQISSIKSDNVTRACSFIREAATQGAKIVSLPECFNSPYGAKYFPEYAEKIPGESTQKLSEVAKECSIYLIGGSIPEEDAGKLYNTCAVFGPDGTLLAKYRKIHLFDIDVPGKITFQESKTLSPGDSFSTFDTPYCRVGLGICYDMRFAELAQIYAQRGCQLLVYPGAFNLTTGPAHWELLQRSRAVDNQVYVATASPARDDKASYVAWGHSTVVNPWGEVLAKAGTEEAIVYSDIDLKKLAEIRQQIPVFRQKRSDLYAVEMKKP

[8] = HeLa, protein PFN1 (PROFILIN-1.)
[9] = HeLa, protein PDHB (ISOFORM 1 OF PYRUVATE DEHYDROGENASE E1 COMPONENT SUBUNIT BETA, MITOCHONDRIAL PRECURSOR)

Compound	fold changes relative to vehicle control ([2]; protein COPG, HeLa)	fold changes relative to vehicle control ([3]; HeLa, protein SOD2)	fold changes relative to vehicle control ([4]; HeLa, protein IPO7)	fold changes relative to vehicle control ([5]; HeLa, protein EFTUD2)	fold changes relative to vehicle control ([6]; HeLa, protein PFN1)	fold changes relative to vehicle control ([7]; HeLa, captured protein NIT2)	fold changes relative to vehicle control ([1]; protein PDHB, HeLa)	fold changes relative to vehicle control ([3]; protein SOD2, HeLa)	fold changes relative to vehicle control ([4]; protein IPO7, HeLa)	fold changes relative to vehicle control ([5]; protein EFTUD2, HeLa)	fold changes relative to vehicle control [6, 8]	fold changes relative to vehicle control ([7]; protein NIT2, HeLa)	other results
Nc1nc2c(c(=O)[nH]1)N(C=O)C(CNc1ccc(C(=O)N[C@@H](CCC(=O)O)C(=O)O)cc1)CN2 (stereo partly shown) [LEU, leucovorin]	0.91	1.14	0.94	0.97	1.22	1.04	–	–	–	–	–	–	fold changes relative to vehicle control ([1]; HeLa, protein PDHB (ISOFORM 1 OF PYRUVATE DEHYDROGENASE E1 COMPONENT SUBUNIT BETA, MIT[…])): 1.01
Nc1nc2[nH]cc(CCc3ccc(C(=O)N[C@@H](CCC(=O)O)C(=O)O)cc3)c2c(=O)[nH]1 [PTX, pemetrexed]	–	–	–	–	–	–	–	–	–	–	–	–	fold changes relative to vehicle control [1]: 0.92; fold changes relative to vehicle control [2]: 0.95; fold changes relative to vehicle control [3]: 1.29; fold changes relative to vehicle control [4]: 0.93; fold changes relative to vehicle control [5]: 0.9; fold changes relative to vehicle control [6]: 1.43; fold changes relative to vehicle control [7]: 0.89
CCCCCCOc1ccc(Cc2cnc(N)nc2N)cc1 [compound 1]	0.93	–	–	–	–	–	0.97	1.91	0.93	1.11	1.64 fold	0.99	–
CCCCCCOc1cccc(Cc2cnc(N)nc2N)c1 [compound 2]	1.39	–	–	–	–	–	0.38	2.29	1.09	1.4	2.32 fold	1.12	–
Nc1nc2cccc(-c3ccccc3)c2n1Cc1ccc(Cl)c(Cl)c1 [compound 3]	1.14	–	–	–	–	–	0.99	1.43	1.17	0.99	1.03 fold	0.84	–
NCCOCCOCC(=O)Nc1nc2ncc(CNc3ccc(C(=O)NC(CCC(=O)O)C(=O)O)cc3)nc2c(=O)[nH]1 (stereo not shown) [compound 6]	1.03	1.65	0.98	1.04	1.47	0.84	–	–	–	–	–	–	fold changes relative to vehicle control [1, 9]: 0.87
NCCCNc1ccc(C(=O)NC(CCC(=O)O)C(=O)O)cc1 (stereo not shown) [compound 7]	1.03	1.35	0.99	0.91	1.21	0.96	–	–	–	–	–	–	fold changes relative to vehicle control [1, 9]: 0.92
